Assay results taken from the supplement of paper PMC10307832.

Legend:
Assay in all cases: relative viability (nuclei count vs DMSO), 5 days (fraction); higher = more cells survive
Cediranib + Alpelisib = compound: COc1cc2c(Oc3ccc4[nH]c(C)cc4c3F)ncnc2cc1OCCCN1CCCC1 [Cediranib] + Cc1nc(NC(=O)N2CCC[C@H]2C(N)=O)sc1-c1ccnc(C(C)(C)C(F)(F)F)c1 [Alpelisib] (partner 2 µM)
Method in brief: (§1)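 Each reported value is a median over duplicate plates. It expresses relative viability: treated-well nuclei count divided by vehicle-well nuclei count. Lung cancer cell lines in 1536-well plates were dosed by pin tool a day after seeding, alone with one drug or with a fixed anchor-drug dose plus five library-drug doses (not always all listed) in √10 steps, and nuclei were counted after 5 days.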

Decitabine + Vorinostat = compound: Nc1ncn([C@H]2C[C@H](O)[C@@H](CO)O2)c(=O)n1 [Decitabine] + O=C(CCCCCCC(=O)Nc1ccccc1)NO [Vorinostat] (partner 1 µM)
Method in brief: as §1

Decitabine + Palbociclib = compound: Nc1ncn([C@H]2C[C@H](O)[C@@H](CO)O2)c(=O)n1 [Decitabine] + CC(=O)c1c(C)c2cnc(Nc3ccc(N4CCNCC4)cn3)nc2n(C2CCCC2)c1=O [Palbociclib] (partner 0.5 µM)
Method in brief: as §1

Halofuginone + AZD7762 = compound: O=C(C[C@H]1NCCC[C@@H]1O)Cn1cnc2cc(Br)c(Cl)cc2c1=O (racemic) [Halofuginone] + NC(=O)Nc1cc(-c2cccc(F)c2)sc1C(=O)N[C@H]1CCCNC1 [AZD7762] (partner 0.2 µM)
Method in brief: as §1

Cell Line | relative viability (Cediranib + Alpelisib; first compound 0.04 µM) | relative viability (Cediranib + Alpelisib; first compound 0.4 µM) | relative viability (Cediranib + Alpelisib; first compound 1.265 µM) | relative viability (Cediranib + Alpelisib; first compound 4 µM) | relative viability (Decitabine + Vorinostat; first compound 0.04 µM) | relative viability (Decitabine + Vorinostat; first compound 0.1265 µM) | relative viability (Decitabine + Vorinostat; first compound 0.4 µM) | relative viability (Decitabine + Vorinostat; first compound 1.265 µM) | relative viability (Decitabine + Vorinostat; first compound 4 µM) | relative viability (Decitabine + Palbociclib; first compound 0.04 µM) | relative viability (Decitabine + Palbociclib; first compound 0.1265 µM) | relative viability (Decitabine + Palbociclib; first compound 0.4 µM) | relative viability (Decitabine + Palbociclib; first compound 1.265 µM) | relative viability (Decitabine + Palbociclib; first compound 4 µM) | relative viability (Halofuginone + AZD7762; first compound 0.001 µM) | relative viability (Halofuginone + AZD7762; first compound 0.003162 µM) | relative viability (Halofuginone + AZD7762; first compound 0.01 µM) | relative viability (Halofuginone + AZD7762; first compound 0.03162 µM) | relative viability (Halofuginone + AZD7762; first compound 0.1 µM) | relative viability (Cediranib + Alpelisib; first compound 0.1265 µM)
LCLC-97TM1 | 0.235 | 0.25 | 0.237 | 0.199 | 0.273 | 0.159 | 0.107 | 0.0989 | 0.0784 | 0.207 | 0.197 | 0.171 | 0.152 | 0.22 | 0.33 | 0.18 | 0.211 | 0.22 | 0.237 | –
LCLC-103H | 1.03 | 0.98 | 0.932 | 0.917 | 0.653 | 0.81 | 0.628 | 0.511 | 0.561 | 0.429 | 0.49 | 0.444 | 0.442 | 0.501 | 0.808 | 0.851 | 0.784 | 0.793 | 0.695 | 1.08
LK-2 | 1.36 | 1.13 | 1.11 | 0.475 | 0.229 | 0.268 | 0.285 | 0.204 | 0.208 | 0.655 | 0.66 | 0.327 | 0.236 | 0.238 | 0.583 | 0.432 | 0.487 | 0.491 | 0.281 | 1.01
LOU-NH91 | 0.702 | 0.695 | 0.672 | 0.615 | 0.768 | 0.958 | 0.848 | 0.805 | 0.849 | 0.514 | 0.592 | 0.588 | 0.507 | 0.415 | 0.793 | 0.735 | 0.767 | 0.691 | 0.664 | 0.952
LU99A | 0.567 | 0.489 | 0.49 | 0.589 | 0.469 | 0.513 | 0.523 | 0.453 | 0.397 | 0.39 | 0.434 | 0.445 | 0.321 | 0.291 | 0.323 | 0.347 | 0.384 | 0.327 | 0.346 | –
LXF-289 | 1.08 | 0.995 | 1.05 | 1.04 | 0.462 | 0.354 | 0.293 | 0.243 | 0.266 | 0.539 | 0.418 | 0.346 | 0.27 | 0.238 | 1.08 | 1.17 | 1.02 | 1.12 | 1.01 | 0.971
NCI-H23 | 0.625 | 0.667 | 0.7 | 0.734 | 0.281 | 0.301 | 0.256 | 0.176 | 0.179 | 0.413 | 0.372 | 0.295 | 0.28 | 0.271 | 0.32 | 0.184 | 0.223 | 0.233 | 0.246 | –
NCI-H322M | 0.687 | 0.655 | 0.723 | 0.685 | 0.715 | 0.792 | 0.816 | 0.61 | 0.664 | 0.439 | 0.485 | 0.554 | 0.479 | 0.463 | 0.517 | 0.708 | 0.526 | 0.614 | 0.426 | 0.84
NCI-H358 | 1.04 | 0.745 | 0.996 | 0.926 | 0.257 | 0.209 | 0.14 | 0.0806 | 0.0904 | 0.179 | 0.118 | 0.114 | 0.13 | 0.135 | 0.496 | 0.492 | 0.447 | 0.246 | 0.149 | 1.05
NCI-H441 | 0.629 | – | 0.638 | 0.781 | 0.211 | 0.281 | 0.249 | 0.169 | 0.181 | 0.214 | 0.198 | 0.183 | 0.138 | 0.205 | 1.13 | 1.35 | 1.18 | 1.3 | 0.599 | 0.69
NCI-H460 | 0.66 | 0.418 | 0.526 | 0.336 | 0.669 | 0.64 | 0.293 | 0.214 | 0.0759 | 0.174 | 0.289 | 0.185 | 0.0847 | 0.0625 | 0.725 | 0.601 | 0.673 | 0.605 | 0.305 | 0.525
NCI-H647 | 1.35 | 1.02 | 0.876 | 1.21 | 0.327 | 0.219 | 0.269 | 0.109 | 0.105 | 0.269 | 0.489 | 0.236 | 0.123 | 0.117 | 0.489 | 0.451 | 0.52 | 0.388 | 0.416 | 1.3
NCI-H650 | 1.06 | 1.05 | 1.12 | 1.21 | 0.338 | 0.301 | 0.204 | 0.219 | 0.16 | 0.268 | 0.243 | 0.198 | 0.191 | 0.182 | 1.06 | 0.848 | 1.21 | 1 | 0.594 | 1.02
NCI-H727 | 0.452 | 0.55 | 0.624 | 0.551 | 1.08 | 0.973 | 0.664 | 0.835 | 1.1 | 0.641 | 0.608 | 0.653 | 0.617 | 0.6 | 0.777 | 0.551 | 0.72 | 0.677 | 0.634 | 0.59
NCI-H838 | 1.06 | 0.97 | 0.962 | 1.13 | 0.701 | 0.595 | 0.641 | 0.383 | 0.34 | 0.259 | 0.275 | 0.194 | 0.211 | 0.199 | 1.02 | 0.799 | 0.933 | 0.876 | 0.751 | 0.997
NCI-H1355 | 0.993 | 0.704 | 0.838 | 0.956 | 0.496 | 0.554 | 0.34 | 0.3 | 0.256 | 0.374 | 0.345 | 0.329 | 0.275 | 0.277 | 0.801 | 0.81 | 0.688 | 0.73 | 0.616 | 0.879
